Results from US10472599B2, “Microfluidic cell culture of patient-derived tumor cell spheroids” (Dana-Farber Cancer Institute, Inc., priority 2015, dated 2019).

What was measured:
Type in all cases: cell-based, human
[1] = test system: spheroids derived from multiple different melanoma resection specimens; assay: Light microscopy of immune response in patient-derived melanoma spheroids in 3D microfluidic culture; conditions: pembrolizumab 250 μg/mL
Procedure: On Day 1, tumor was collected in an operating room and placed in a sterile 15 mL conical tube bathed with culture media (10% FBS with DMEM or RPMI) and stored on ice. The media was aspirated in a sterile hood and the tumor specimen gently placed in a normal 10 cm culture dish on ice. Using a scalpel, the tumor was minced into smaller pieces. A sample can optionally be exposed to strong collagenase treatment to generate single cells that can be submitted directly for flow cytometry. To the 10 cm dish containing the minced tumor was added 10 mL of collagenase solution (10 mL media, 150 μL HEPES (15 mM final concentration), 100 μL collagenase (100 U/μL stock, 1 unit/μL final concentration)). The minced tumor and collagenase mixture was subsequently transferred to a 50 mL conical tube, and then transferred to a fresh low-attachment 10 cm dish. The low-attachment dish comprising the sample was incubated at 37° C. for 30-60 minutes while checking every 15-30 minutes, as the duration of time required varies from specimen to specimen. The intended outcome of this step is to generate multicellular spheroids via a limited collagenase digestion, so the sample should not be comprised entirely of single cells. After the […] incubation period, 10 mL of fresh media was added to the dish containing the tumor sample and the contents (˜20 mL) transferred to a 50 mL conical tube. […]

[2] = test system: spheroids derived from multiple different melanoma resection specimens; assay: Luminex cytokine profiling of conditioned media from melanoma spheroid culture
Procedure: On Day 3, media was aspirated from the device and ˜200 μL media (1:1 mixture of 10% FBS-DMEM and EGM2 supplemented with growth factors per protocol) with or without treatment (e.g., anti-PD-1 monoclonal Ab) were added to each device. The devices were subsequently placed in humidified, sterile containers, and returned to 37° C. incubation.
On Day 6 (or 48-72 hours post-treatment), conditioned media was collected for cytokine analysis. Light microscopy was performed and images obtained to characterize and document spheroid dispersal and/or putative immune response, which is commonly characterized by non-pigmented cells surrounding the brown-pigmented melanoma spheroids. Media was collected from each device by aspiration using a 200 μL pipet, transferred to sterile 1.5 mL Eppendorf tubes, and frozen at −80° C. prior to submission to CMOP for multiplex cytokine/chemokine analysis. Also on Day 6, the cells present in the 3D culture device following treatment were characterized by multiple methods.
As the spheroids and co-cultured endothelial cells are bathed in media, the conditioned media was extracted from the device and luminex cytokine profiling was performed.

[3] = test system: melanoma tumor spheroids; assay: Flow cytometry immune profiling of cells extracted from the device post-treatment
Procedure: For flow cytometry, RNA sequencing analysis, or T-cell receptor (TCR) sequencing the cells were removed using collagenase (150 μL per device) after media had been removed. […] The cells in collagenase were aspirated into a 15 mL conical tube containing 4.0 mL of sterile 1× PBS and spun down for 5 minutes at 1100 rpm. The PBS wash was gently aspirated and the pellet resuspended in 1.5 mL 10% FBS-DMEM for flow cytometry. In some instances, genomic DNA is prepared from flow-sorted T lymphocytes for TCR sequencing using the ImmunoSeq platform from Adaptive Biotechnologies to evaluate T-cell receptor clonality. Clonality can be assessed in spheroids relative to bulk tumor, and in response to immune checkpoint blockade to evaluate for increased TCR clonality (indicating expansion of tumor-reactive T cell clones). For RNA sequencing, the resuspension can be performed using 1.5 mL 10% FBS-DMEM, PBS, or a compatible lysis buffer.
Additionally, although it was demonstrable by flow cytometry of melanoma tumor spheroids at baseline that they consisted of up to 20% immune cells, including T cells, dendritic cells, monocytes (not shown), the value of extracting cells from the device and repeating flow cytometry post-treatment was realized. By repeating collagenase digestion within the device and washing cells in PBS, conditions have been developed that enable repeat immune profiling. […]

## pembrolizumab
[1]; absence of anti-CD28 co-stimulation (FIG. 4A)
  immune response: observed immune response
[1]; presence of anti-CD28 co-stimulation (FIG. 4B)
  immune response: observed immune response
[2]; combination with anti-CD28 (FIG. 5)
  certain cytokines (e.g., IP10) in conditioned media: induced
[2]; following αPD1 exposure (FIG. 5)
  cytokines in conditioned media: pronounced up-regulation of multiple cytokines
[3]; post-treatment flow cytometry (FIG. 6A)
  markers of early CD8 T cell activation such as CD69: observed increase
[3]; post-treatment flow cytometry (FIG. 6B)
  specific immune checkpoint receptors such as TIM3: increase
